Patent publication US10494380B2, “Nitrogen-containing tricyclic derivatives having HIV replication inhibitory activity” (priority 2015, dated 2019)
Like-named read-outs stand apart in the source and are kept apart here.

How the values were obtained:
HIV = type: cell-based; conditions: EC50 in the presence of human serum (25%) versus without human serum, MT-4 cells
Procedure: To confirm the influence of human serum on anti-HIV activity as necessary, human serum was added and determined EC50 in this condition. Human serum (100 μL/well) was dispensed into each anti-HIV active substance at a designated concentration dispensed 50 μL each in advance into a 96-well microtiter plate, and the plate was incubate at room temperature for 1 hour. To the serum-free plate, only culture medium (100 μL/well) was dispensed into 96-well microtiter plate. MT-4 cells (3×10^4 cells/well) was infected with 3 μL/well of HIV solution diluted to an appropriate concentration (600 pfu/50 μL) by the required number of wells and incubated at 37° C. for 1 hour. The infected cells were centrifuged at 1200 rpm for 5 minutes, the supernatant was discarded, and the infected cells were dispersed into culture medium for the required number of wells at 50 μL/well. Infected cell suspension was dispensed into a 96-well microtiter plate of which anti-HIV active substance and human serum prepared in advance. The cell mixture was mixed with a plate mixer and cultured in a CO2 incubator for 4 days. The EC50 in the presence of human serum was calculated in the same manner as in Test Example 1 and the ratio of EC50 in the presence of human serum and EC50 in the absence of human serum was calculated as the potency shift value. […]

[1] = system: T125A mutant virus (HIV-1 NL-432 recombinant molecular clone, IN gene); assay: HIV replication inhibition assay against integrase 124/125 mutant virus (Test Example 2); type: cell-based
Method in brief: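 MT-4 cells (2.5×10^4 per well) infected with 60 pfu of 293T-derived HIV-1 NL-432 clone carrying integrase 124/125 point mutations, in presence of compound, cultured 4 days at 37 °C. Viability by MTT formazan at 560/690 nm; EC50 = concentration inhibiting 50% of virus-induced cytotoxicity.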

[2] = Human immunodeficiency virus 1, MT4, read-out: EC50 against T125A mutant virus, T125A mutant virus (HIV-1 NL-432 IN gene), MT-4 cells, MTT
[3] = T125A mutant virus (HIV-1 NL-432 IN gene), MT-4 cells, MTT, read-out: EC50 against T125A mutant virus

Cc1c([C@H](OC(C)(C)C)C(=O)O)c(-c2ccc(Cl)cc2)c2cc(C)n3c2c1N(c1nccs1)CC3 [Compound I-165]
Potency shift value (HIV): 8.3 | EC50 [1, 2]: 6.9 nM

Cc1c([C@H](OC(C)(C)C)C(=O)O)c(-c2ccc(Cl)cc2)c2cc(C)n3c2c1N(C(N)=S)CC3 [Compound I-166]
Potency shift value (HIV): 3.5 | EC50 [1, 2]: 62 nM

Cc1c([C@H](OC(C)(C)C)C(=O)O)c(-c2ccc(Cl)cc2)c2cc(C)n3c2c1N(C(=O)C(=O)N(C)C)[C@H](C)C3 [Compound I-169]
Potency shift value (HIV): 30 | EC50 [1, 2]: 50 nM

Cc1c([C@H](OC(C)(C)C)C(=O)O)c(-c2ccc(Cl)cc2)c2cc(C)n3c2c1N(C(N)=O)CC3 [Compound I-173]
Potency shift value (HIV): 4 | EC50 [1, 2]: 71 nM

Cc1c([C@H](OC(C)(C)C)C(=O)O)c(-c2ccc(Cl)cc2)c2cc(C)n3c2c1C=CC3 [Compound I-174]
Potency shift value (HIV): 14 | EC50 [1, 2]: 55 nM

Cc1ccc(-c2c([C@H](OC(C)(C)C)C(=O)O)c(F)c3c4c2cc(C)n4CCN3C)cc1 [Compound I-179]
Potency shift value (HIV): 23 | EC50 [1, 2]: 83 nM

Cc1c([C@H](OC(C)(C)C)C(=O)O)c(-c2ccc(Cl)cc2)c2cc(C)n3c2c1N(C1=NCCO1)CC3 [Compound I-180]
Potency shift value (HIV): 7.8 | EC50 [1, 2]: 13 nM

Cc1c([C@H](OC(C)(C)C)C(=O)O)c(-c2ccc(Cl)cc2)c2cc(C)n3c2c1N(c1ncc(O)cn1)CC3 [Compound I-183]
Potency shift value (HIV): 7.6 | EC50 [1, 2]: 31 nM

COc1cnc(N2CCn3c(C)cc4c(-c5ccc(F)cc5)c([C@H](OC(C)(C)C)C(=O)O)c(C)c2c43)nc1 [Compound I-185]
Potency shift value (HIV): 15 | EC50 [1, 2]: 7.1 nM

Cc1ccc(-c2c(C(OC(C)(C)C)C(=O)O)c(C#N)c3c4c2cc(C)n4CCN3C)cc1 (stereo not drawn) [Compound I-186]
Potency shift value (HIV): 15 | EC50 [1, 2]: 20 nM

Cc1c([C@H](OC(C)(C)C)C(=O)O)c(-c2ccc(Cl)cc2)c2cc(C)n3c2c1OCCC3 [Compound I-188]
Potency shift value (HIV): 11 | EC50 [1, 2]: 14 nM

Cc1c([C@H](OC(C)(C)C)C(=O)O)c(-c2c(F)cc(F)cc2F)c2cc(C)n3c2c1N(C)CC3 [Compound I-191]
Potency shift value (HIV): 7.4 | EC50 [1, 2]: 13 nM

COc1ccc(N2CCn3c(C)cc4c(-c5ccc(Cl)cc5)c([C@H](OC(C)(C)C)C(=O)O)c(C)c2c43)nc1 [Compound I-192]
Potency shift value (HIV): 11 | EC50 [1, 2]: 4.6 nM

Cc1c([C@H](OC(C)(C)C)C(=O)O)c(-c2ccc(Cl)cc2)c2cc(C)n3c2c1N(c1ncccc1F)CC3 [Compound I-193]
Potency shift value (HIV): 21 | EC50 [1, 2]: 2.8 nM

COc1cccc(N2CCn3c(C)cc4c(-c5ccc(Cl)cc5)c([C@H](OC(C)(C)C)C(=O)O)c(C)c2c43)n1 [Compound I-194]
Potency shift value (HIV): 13 | EC50 [1, 2]: 12 nM

Cc1c([C@H](OC(C)(C)C)C(=O)O)c(-c2ccc(Cl)cc2)c2cc(C)n3c2c1OC(C)C3 (stereo partly drawn) [Compound I-195]
Potency shift value (HIV): 12 | EC50 [1, 2]: 15 nM

Cc1c([C@H](OC(C)(C)C)C(=O)O)c(-c2ccc(Cl)cc2)c2cc(C)n3c2c1OC(C)C3 (stereo partly drawn) [Compound I-196]
Potency shift value (HIV): 11 | EC50 ([1]; read-out: EC50 against T125A mutant virus, T125A mutant virus (HIV-1 NL-432 IN gene), MT-4 cells, MTT): 18 nM

COCCOC(=O)Nc1cnc(N2CCn3c(C)cc4c(-c5ccc(C)cc5)c([C@H](OC(C)(C)C)C(=O)O)c(C)c2c43)nc1 [Compound I-203]
Potency shift value (HIV): 30 | EC50 [1, 3]: 13 nM

Cc1ccc(-c2c([C@H](OC(C)(C)C)C(=O)O)c(C)c3c4c2cc(C)n4CCN3CCOCC(F)F)cc1 [Compound I-206]
Potency shift value (HIV): 9.7 | EC50 [1, 3]: 71 nM

CCOCCN1CCn2c(C)cc3c(-c4ccc(C)cc4)c([C@H](OC(C)(C)C)C(=O)O)c(C)c1c32 [Compound I-207]
Potency shift value (HIV): 8.1 | EC50 [1, 3]: 19 nM

Cc1ccc(-c2c([C@H](OC(C)(C)C)C(=O)O)c(C)c3c4c2cc(C)n4CCN3CCOC(F)F)cc1 [Compound I-208]
Potency shift value (HIV): 11 | EC50 [1, 3]: 24 nM

Cc1ccc(-c2c([C@H](OC(C)(C)C)C(=O)O)c(C)c3c4c2cc(C)n4CCN3CCF)cc1 [Compound I-209]
Potency shift value (HIV): 24 | EC50 [1, 3]: 16 nM

Cc1ccc(-c2c([C@H](OC(C)(C)C)C(=O)O)c(C)c3c4c2cc(C)n4CCN3S(=O)(=O)CCO)cc1 [Compound I-210]
Potency shift value (HIV): 5.4 | EC50 [1, 3]: 65 nM

Cc1ccc(-c2c([C@H](OC(C)(C)C)C(=O)O)c(C)c3c4c2cc(C)n4CCN3CC2COC2)cc1 [Compound I-211]
Potency shift value (HIV): 7.5 | EC50 [1, 3]: 20 nM

Cc1ccc(-c2c([C@H](OC(C)(C)C)C(=O)O)c(C)c3c4c2cc(C)n4CCN3c2ncc(C3=CCN(C)CC3)cn2)cc1 [Compound I-212]
Potency shift value (HIV): 3.9 | EC50 [1, 3]: 6.8 nM

Cc1ccc(-c2c([C@H](OC(C)(C)C)C(=O)O)c(C)c3c4c2cc(C)n4CCN3c2cccc(CO)n2)cc1 [Compound I-216]
Potency shift value (HIV): 9.2 | EC50 [1, 3]: 20 nM

Cc1ccc(-c2c([C@H](OC(C)(C)C)C(=O)O)c(C)c3c4c2cc(C)n4CCN3c2cccc(CN3CCOCC3)n2)cc1 [Compound I-217]
Potency shift value (HIV): 9.1 | EC50 [1, 3]: 39 nM

Cc1c([C@H](OC(C)(C)C)C(=O)O)c(-c2ccc(Cl)cc2)c2cc(C)n3c2c1N(C(=O)Nc1ccccc1N)CC3 [Compound I-218]
Potency shift value (HIV): 5.5 | EC50 [1, 3]: 20 nM

Cc1c([C@H](OC(C)(C)C)C(=O)O)c(-c2ccc(Cl)cc2)c2cc(C)n3c2c1N(c1cccc(=O)n1C)CC3 [Compound I-219]
Potency shift value (HIV): 7.6 | EC50 [1, 3]: 43 nM

CNCCOc1cnc(N2CCn3c(C)cc4c(-c5ccc(C)cc5)c([C@H](OC(C)(C)C)C(=O)O)c(C)c2c43)nc1 [Compound I-224]
Potency shift value (HIV): 3.3 | EC50 [1, 3]: 79 nM

Cc1ccc(-c2c([C@H](OC(C)(C)C)C(=O)O)c(C)c3c4c2cc(C)n4CCN3c2ncc(OCCN(C)S(C)(=O)=O)cn2)cc1 [Compound I-225]
Potency shift value (HIV): 9.7 | EC50 [1, 3]: 11 nM

Cc1cc2c(-c3ccc(Cl)cc3)c([C@H](OC(C)(C)C)C(=O)O)c(Cl)c3c2n1CCN3C [Compound I-228]
Potency shift value (HIV): 9.1 | EC50 [1, 2]: 2.6 nM

COc1cnc(N2CCn3c(C)cc4c(-c5ccccc5)c([C@H](OC(C)(C)C)C(=O)O)c(C)c2c43)nc1 [Compound I-231]
Potency shift value (HIV): 22 | EC50 [1, 2]: 10 nM

Cc1c([C@H](OC(C)(C)C)C(=O)O)c(-c2ccc(Cl)cc2)c2cc(C)n3c2c1N(C(=O)Nc1ccccc1Br)CC3 [Compound I-232]
Potency shift value (HIV): 8.6 | EC50 [1, 2]: 34 nM

COCCOc1cnc(N2CCn3c(C)cc4c(-c5ccc(Cl)cc5)c([C@H](OC(C)(C)C)C(=O)O)c(C)c2c43)nc1 [Compound I-234]
Potency shift value (HIV): 19 | EC50 [1, 2]: 3.6 nM

Cc1c([C@H](OC(C)(C)C)C(=O)O)c(-c2ccc(Cl)cc2)c2cc(C)n3c2c1N(c1ncc(-c2ccc(F)cc2)cn1)CC3 [Compound I-239]
Potency shift value (HIV): 16 | EC50 [1, 2]: 22 nM

Cc1c([C@H](OC(C)(C)C)C(=O)O)c(-c2ccc(Cl)cc2)c2cc(C)n3c2c1N(c1nc2ccccc2s1)CC3 [Compound I-240]
Potency shift value (HIV): 12 | EC50 [1, 2]: 51 nM

COc1cnc(N2c3c(C)c([C@H](OC(C)(C)C)C(=O)O)c(-c4ccc(C)cc4)c4cc(C)n(c34)C[C@H]2C)nc1 [Compound I-241]
Potency shift value (HIV): 8.4 | EC50 [1, 2]: 2.2 nM

Cc1c([C@H](OC(C)(C)C)C(=O)O)c(-c2ccc(Cl)cc2)c2cc(C)n3c2c1N(c1nc2ccccc2n1C)CC3 [Compound I-242]
Potency shift value (HIV): 11 | EC50 [1, 2]: 6.4 nM

Cc1ccc(-c2c([C@H](OC(C)(C)C)C(=O)O)c(Cl)c3c4c2cc(C)n4CCN3)cc1 [Compound I-247]
Potency shift value (HIV): 7.6 | EC50 [1, 2]: 8.3 nM

Cc1cc(F)c(-c2c([C@H](OC(C)(C)C)C(=O)O)c(C)c3c4c2cc(C)n4CCN3CCN(C)C)c(F)c1 [Compound I-248]
Potency shift value (HIV): 1.5 | EC50 [1, 2]: 67 nM

Cc1ccc(-c2c([C@H](OC(C)(C)C)C(=O)O)c(C)c3c4c2cc(C)n4CCN3c2ncc(C(=O)N(C)C)cn2)cc1 [Compound I-250]
Potency shift value (HIV): 19 | EC50 [1, 2]: 9.9 nM

Cc1ccc(-c2c([C@H](OC(C)(C)C)C(=O)O)c(C)c3c4c2cc(C)n4CCN3c2nc3ccccc3n2C)cc1 [Compound I-251]
Potency shift value (HIV): 9.6 | EC50 [1, 2]: 4.2 nM

Cc1c([C@H](OC(C)(C)C)C(=O)O)c(-c2ccc(Cl)cc2)c2cc(C)n3c2c1N(c1ncc(N2CCCC2)cn1)CC3 [Compound I-252]
Potency shift value (HIV): 23 | EC50 [1, 2]: 8.5 nM

Cc1c([C@H](OC(C)(C)C)C(=O)O)c(-c2ccc(Cl)cc2)c2cc(C)n3c2c1N(c1ncc(OCCCO)cn1)CC3 [Compound I-256]
Potency shift value (HIV): 10 | EC50 [1, 2]: 5.6 nM
